Values after ≈ are worked out from the molar mass of the structure shown.
Test system: human rhinovirus (HRV) serotypes HRV-2, -1A, 1B, -6, -14, -21, -22, -15, -25, -30, -50, -67, -89, -86 and -41
Experiment: standard plaque reduction assay, panel of human rhinovirus serotypes in HeLa (Ohio) cells
Format: cell-based
Details: MIC = 50% plaque reduction, N serotypes: 15 (Ex. 1, 2, 4, 7, 8), 13 (Ex. 3), 2 (Ex. 5, 6); for MIC50 (Rhinovirus): concentration required to inhibit 50% of the tested serotypes; for MIC80 (Rhinovirus): concentration required to inhibit 80% of the tested serotypes
Description: The MIC values were determined by a standard plaque reduction assay as follows: HeLa (Ohio) cells in monolayers were infected at a concentration of virus to give approximately 80 plaques per monolayer in the virus control (no drug present). The compound to be tested was serially diluted and included in the agar-medium overlay and in some cases, during the adsorption period as well. The MIC was determined to be that concentration of compound which reduced the number of plaques by 50% with respect to the untreated virus control.
In the standard test procedure, the compounds were tested against a panel of fifteen human rhinovirus (HRV) serotypes, namely HRV-2, -1A, 1B, -6, -14, -21, -22, -15, -25, -30, -50, -67, -89, -86 and -41. The MIC value for each rhinovirus serotype was determined, and the efficacy of each compound was determined in terms of MIC50 and MIC80 values, which is the concentration of the compound required to inhibit 50% and 80%, respectively, of the tested serotypes.
The following Table gives the testing results with the compounds of the invention. The number of serotypes (N) is indicated after the MIC80 figure.

Row | SMILES | MIC50 (Rhinovirus) [µg/mL] | MIC80 (Rhinovirus) [µg/mL]
1 | CCc1ccc(N2CCC(COc3ccc(-c4nnn(C)n4)cc3)CC2)nn1 [Ex. 1] | 13.2 (≈ 34.7 µM) | 0.281 (≈ 0.742 µM)
2 | Cc1ccc(N2CCC(CCOc3ccc(-c4nnn(C)n4)cc3)CC2)nn1 [Ex. 7] | 6.64 (≈ 17.5 µM) | 0.04 (≈ 0.105 µM)
3 | Cc1ccc(N2CCC(CCOc3c(C)cc(-c4nnn(C)n4)cc3C)CC2)nn1 [Ex. 8] | 16.8 (≈ 41.3 µM) | 0.66 (≈ 1.62 µM)
4 | Cc1ccc(N2CCC(Oc3c(C)cc(-c4nnn(C)n4)cc3C)CC2)nn1 [Ex. 5] | 0.92 (≈ 2.42 µM) | 1.8 (≈ 4.74 µM)
5 | Cc1ccc(N2CCC(COc3ccc(-c4nnn(C)n4)cc3)CC2)nn1 [Ex. 2] | 13.3 (≈ 36.5 µM) | 0.141 (≈ 0.386 µM)
6 | Cc1ccc(N2CCC(Oc3ccc(-c4nnn(C)n4)cc3)CC2)nn1 [Ex. 6] | 0.27 (≈ 0.768 µM) | 0.52 (≈ 1.48 µM)
7 | CCCc1ccc(N2CCC(Oc3ccc(-c4nnn(C)n4)cc3)CC2)nn1 [Ex. 3] | 15.7 (≈ 41.4 µM) | 1.82 (≈ 4.8 µM)
8 | Cc1ccc(N2CCC(COc3c(C)cc(-c4nnn(C)n4)cc3C)CC2)nn1 [Ex. 4] | 20.1 (≈ 51.2 µM) | 1.48 (≈ 3.77 µM)
